{"source": "patent US20020193425A1", "about": "“Cancer chemopreventative compounds and compositions and methods of treating cancers” (priority 2001, published 2002)", "key": {"[1]": {"system": "BV173", "assay": "Membrane phenotype, cell surface antigen by flow cytometry", "type": "cell-based", "conditions": "4-day protocol", "method": "(§1) Cell lines were tested using a 4-day incubation protocol, unless otherwise specified.\n(§2) 3) Determination of cell surface antigen by flow cytometry. Cells (10^6) were washed with PBS and then incubated for 30 min at room temperature with respective monoclonal antibodies, washed with 20 volumes of diluent (PBS with 0.1% sodium azide and 1% BSA), and resuspended in 0.5 ml of fresh diluent for evaluation. Necrotic cells were excluded from the analysis by propidium iodide (PI) staining. The following mAbs (Sigma, St. Louis, Mo.) were used to assess the maturation level of myeloid cell lines: antiCD15 (Leu M1), antiCD-11b (OKM1), antiCD14 and antiCD13. The following mAbs (Sigma, St. Louis, Mo.) were used to assess the maturation level of lymphocytic cell lines: antiCD20, antiHLA-DR and antikappa light chain.\n(§3) Cells were induced to differentiate with the indicated concentrations of brusatol using a 4-day protocol and then analyzed for membrane markers of differentiation as described under “Materials and methods”. Results are expressed as the specific mean fluorescence intensity (ratio of antigen antibody flourescence over isotype antibody fluorescence), and represents the mean of two independent studies."}, "[2]": {"system": "K562 cells", "assay": "Membrane phenotype, cell surface antigen by flow cytometry", "type": "cell-based", "conditions": "Brusatol 25 ng/ml, 4-day protocol", "method": "as §1, §2, §3"}, "[3]": {"system": "Kasumi-1", "assay": "Membrane phenotype, cell surface antigen by flow cytometry", "type": "cell-based", "conditions": "4-day protocol", "method": "as §1, §2, §3"}, "[4]": {"system": "NB4 cells", "assay": "Membrane phenotype, cell surface antigen by flow cytometry", "type": "cell-based", "conditions": "Brusatol 10 ng/ml, 4-day protocol", "method": "as §1, §2, §3"}, "[5]": {"system": "RS4;11 cells", "assay": "Membrane phenotype, cell surface antigen by flow cytometry", "type": "cell-based", "conditions": "Brusatol 25 ng/ml, 4-day protocol", "method": "as §1, §2, §3"}, "[6]": {"system": "U937 cells", "assay": "Membrane phenotype, cell surface antigen by flow cytometry", "type": "cell-based", "conditions": "Brusatol 12.5 ng/ml, 4-day protocol", "method": "as §1, §2, §3"}, "[7]": {"system": "HL-60", "assay": "NBT-reduction differentiation assay, leukemic panel", "type": "cell-based, human", "conditions": "4 days", "method": "as §1\n(§4) 2) NBT/NSE/SE. Evaluation of NBT reduction was used to assess the ability of sample-treated cells to produce superoxide when challenged with TPA. A 1:1 (v/v) mixture of a cell suspension (10^6 cells) and TPA/NBT solution (2 mg/ml NBT and 1 μg/ml TPA in phosphate buffer saline (PBS)) was incubated for 1 h at 37° C. Then, cells were smeared on glass slides, and counterstained with 0.3% (w/v) safranin O in methanol. Positive cells reduce NBT yielding intracellular black-blue formazan deposits. NSE/SE are monocytic/granulocytic esterases that can be visualized by cytochemical staining using commercially available kits (α-Naphthyl Acetate Esterase and Naphthol As-D Chloroacetate Esterase kits, Sigma Chemical Co., St. Louis, Mo.). Positive-stained cells were quantified by microscopic examination of >200 cells. Results were expressed as a percentage of positive cells.\n(§5) Concentration-dependent effect of brusatol on: (a) NBT-reduction (monocyte/granulocyte marker) of HL-60, K562, NB4, U937, and BV173 and (b) NSE expression (monocyte marker) in K562, Kasumi-1, NB4, and BV173 cells, respectively. Data points are the mean of duplicate samples."}, "[8]": {"system": "K562", "assay": "NBT-reduction differentiation assay, leukemic panel", "type": "cell-based", "conditions": "4 days", "method": "as §1, §4, §5"}, "[9]": {"system": "BV173", "assay": "NSE expression (monocyte marker)", "type": "cell-based", "conditions": "4 days", "method": "as §1, §4, §5"}, "[10]": {"system": "K562", "assay": "NSE expression (monocyte marker)", "type": "cell-based", "conditions": "4 days", "method": "as §1, §4, §5"}, "[11]": {"system": "Kasumi-1", "assay": "NSE expression (monocyte marker)", "type": "cell-based", "conditions": "4 days", "method": "as §1, §4, §5"}, "[12]": {"system": "NB4", "assay": "NSE expression (monocyte marker)", "type": "cell-based", "conditions": "4 days", "method": "as §1, §4, §5"}, "[13]": {"assay": "Withdrawal assays, growth and differentiation of HL-60 cells", "type": "cell-based, human", "conditions": "human, HL-60 cells", "method": "(§6) The irreversibility of brusatol effects on growth and differentiation of HL-60 cells was tested using withdrawal assays during a 4-day experiment.\n(§7) The assay lasted for 4 days (96 h) and then, cells were analyzed for viability and differentiation markers. […] Results are shown as the mean of duplicate samples (±standard deviation)."}, "[14]": {"system": "HL-60 cells", "assay": "Withdrawal assays, growth and differentiation of HL-60 cells", "type": "cell-based, human", "conditions": "12.5 ng/ml", "method": "as §6, §7"}, "[15]": {"system": "JB6 cells", "conditions": "dose-dependent manner; cited from earlier work"}, "[16]": {"assay": "Cytotoxicity, viability by Trypan blue exclusion", "conditions": "human, HL-60 cells, Cytotoxicity (IC50, ng/ml), four days", "protocol": "(§8) HL-60, K562, U937, Reh and Daudi cells were obtained from the American Type Culture Collection (Rockville, Md.). Kasumi-1, NB4, BV173, SUPB13, and RS4;11 cells were provided by the Section of Hematology/Oncology, University of Illinois College of Medicine, Chicago, Ill. All cell lines were maintained in suspension culture using RPMI 1640 medium supplemented with 10% heat-inactivated fetal bovine serum, 100 units of penicillin/ml and 100 μg of streptomycin/ml at 37° C. in a humidified atmosphere of 5% CO2 in air. All cells were routinely tested for mycoplasma contamination.\n(§9) Cellular viability was monitored by Trypan blue exclusion. Inhibition of [3H]thymidine incorporation into DNA was determined to assess the level of cell proliferation as well as DNA synthesis inhibition. […] The filters were counted using a Microbeta™ liquid scintillation counter (Wallac, Turku, Finland) with scintillation fluid. Finally, the percentage of [3H]thymidine incorporation per 10^6 cells was calculated by dividing the dpm of sample-treated cells by the dpm of DMSO-treated cells.\n(§10) ^aViability was determined by Trypan blue exclusion in duplicate samples. […] Results are expressed as median inhibitory cell concentrations of two independent experiments (±standard deviations)."}, "[17]": {"system": "HL-60", "assay": "Cytotoxicity, viability by Trypan blue exclusion", "conditions": "four days", "protocol": "as §8, §9, §10"}, "[18]": {"assay": "Cytotoxicity, viability by Trypan blue exclusion", "conditions": "human, U937 cells, Cytotoxicity (IC50, ng/ml), four days", "protocol": "as §8, §9, §10"}, "[19]": {"system": "U937", "assay": "Cytotoxicity, viability by Trypan blue exclusion", "conditions": "four days", "protocol": "as §8, §9, §10"}, "[20]": {"system": "BV173", "assay": "Cytotoxicity, viability by Trypan blue exclusion", "conditions": "four days", "protocol": "as §8, §9, §10"}, "[21]": {"system": "metastatic breast cancer and malignant melanoma", "conditions": "phase II trials, adult patients with metastatic breast cancer and malignant melanoma; cited from earlier work"}, "[22]": {"assay": "in vitro", "conditions": "human", "protocol": "as §8\nCellular viability was monitored by Trypan blue exclusion. Inhibition of [3H]thymidine incorporation into DNA was determined to assess the level of cell proliferation as well as DNA synthesis inhibition. Cells were treated with test samples for four days and then placed into 96-well plates (100 μl) and treated with [3H]thymidine (0.5 μCi/ml, 65 Ci/mmol) for 18 h at 37° C. in a 5% CO2 incubator. Cells then were collected on glass fiber filters using a TOMTEC Harvester 96®. The filters were counted using a Microbeta™ liquid scintillation counter (Wallac, Turku, Finland) with scintillation fluid. Finally, the percentage of [3H]thymidine incorporation per 10^6 cells was calculated by dividing the dpm of sample-treated cells by the dpm of DMSO-treated cells.\nas §10"}, "[23]": {"assay": "in vitro", "conditions": "human", "remark": "listed apart in the source", "protocol": "Human blood (20 ml) was collected in heparinized sterile tubes and white blood cells were separated using Ficoll reagent (8 ml/5 ml blood diluted in 15 ml Hank's buffered solution). After centrifugation at low speed (1500 rpm) for 30 min, the white coat was removed and washed 3-times with Hank's buffered solution. The cell pellet was resuspended in RPMI 1640 medium supplemented with 10% FBS. This preparation contained >90% lymphocytes and <5% monocytes, as determined by Wright-Giemsa staining.\nCellular viability was monitored by Trypan blue exclusion.\nas §10"}}}
{"smiles": "COC(=O)[C@@]12OC[C@]34[C@H]([C@@H](O)[C@@H]1O)[C@@]1(C)CC(=O)C(O)=C(C)[C@@H]1C[C@H]3OC(=O)[C@H](OC(=O)C=C(C)C)[C@@H]24", "note": "[compound 1, brusatol]", "values": [{"measurement": "membrane markers of differentiation, change between control and treated cells", "setting": "[1]", "value": "did not show any changes"}, {"measurement": "CD11b, specific mean fluorescence intensity", "setting": "[2]", "value": "1.0 ± 0.1"}, {"measurement": "CD13, specific mean fluorescence intensity", "setting": "[2]", "value": "1.4 ± 0.2"}, {"measurement": "CD14, specific mean fluorescence intensity", "setting": "[2]", "value": 1.0}, {"measurement": "CD15, specific mean fluorescence intensity", "setting": "[2]", "value": "4.6 ± 1.1"}, {"measurement": "membrane markers of differentiation, change between control and treated cells", "setting": "[3]", "value": "did not show any changes"}, {"measurement": "CD11b, specific mean fluorescence intensity", "setting": "[4]", "value": "1.2 ± 0.5"}, {"measurement": "CD13, specific mean fluorescence intensity", "setting": "[4]", "value": "156.1 ± 54.3"}, {"measurement": "CD14, specific mean fluorescence intensity", "setting": "[4]", "value": 1.3}, {"measurement": "CD15, specific mean fluorescence intensity", "setting": "[4]", "value": "18.5 ± 0.4"}, {"measurement": "CD11b, specific mean fluorescence intensity", "setting": "[5]", "value": "1.2 ± 0.1"}, {"measurement": "CD13, specific mean fluorescence intensity", "setting": "[5]", "value": "1.3 ± 0.2"}, {"measurement": "CD15, specific mean fluorescence intensity", "setting": "[5]", "value": "151.9 ± 42.1"}, {"measurement": "CD11b, specific mean fluorescence intensity", "setting": "[6]", "value": "2.5 ± 0.2"}, {"measurement": "CD13, specific mean fluorescence intensity", "setting": "[6]", "value": "55.7 ± 1.1"}, {"measurement": "CD14, specific mean fluorescence intensity", "setting": "[6]", "value": 9.6}, {"measurement": "CD15, specific mean fluorescence intensity", "setting": "[6]", "value": "28.5 ± 4.3"}, {"measurement": "NBT-reduction, peak induction", "setting": "[7]", "value": 75, "unit": "%"}, {"measurement": "NBT-reduction, peak induction", "setting": "[8]", "value": 75, "unit": "%"}, {"measurement": "upregulated expression of NSE", "setting": "[9]", "value": "approximately 35%"}, {"measurement": "upregulated expression of NSE", "setting": "[10]", "value": "approximately 50%"}, {"measurement": "upregulated expression of NSE", "setting": "[11]", "value": "approximately 50%"}, {"measurement": "upregulated expression of NSE", "setting": "[12]", "value": "approximately 50%"}, {"measurement": "viability at 48 h, 12.5 ng/ml", "setting": "[13]; 12.5 ng/ml, 48 h exposure", "value": "> 80", "unit": "%"}, {"measurement": "viability at 72 h, 12.5 ng/ml", "setting": "[13]; 12.5 ng/ml, 72 h exposure", "value": 56, "unit": "%"}, {"measurement": "viability at 96 h, 12.5 ng/ml", "setting": "[13]; 12.5 ng/ml, 96 h exposure", "value": 45, "unit": "%"}, {"measurement": "selectivity ratio", "setting": "[13]; 2-day protocol versus 4-day protocol, read-out: increase in selectivity (differentiation vs cytotoxicity)", "value": 10}, {"measurement": "IC50 at 4 days", "setting": "[13]; 4-day protocol, read-out: cytotoxic IC50", "value": 0.025, "unit": "µg/mL"}, {"measurement": "IC50 at 2 days", "setting": "[13]; 2 day-protocol, read-out: cytotoxic IC50", "value": 0.25, "unit": "µg/mL"}, {"measurement": "cells induced to differentiate", "setting": "[14]; withdrawal after 48 h of exposure, 4-day experiment", "value": 41, "unit": "%"}, {"measurement": "cells induced to differentiate", "setting": "[14]; without withdrawal", "value": 46, "unit": "%"}, {"measurement": "TPA-induced anchorage-independent growth of JB6 cells", "setting": "[15]", "value": "inhibits"}, {"measurement": "IC50 at 4 days", "setting": "[16]", "value": "0.05 to 0.1", "unit": "µg/mL"}, {"measurement": "Cytotoxicity (IC50, ng/ml)", "setting": "[17]", "value": "50 ± 0.9", "unit": "ng/mL"}, {"measurement": "IC50 at 4 days", "setting": "[18]", "value": "< 0.025", "unit": "µg/mL"}, {"measurement": "Cytotoxicity (IC50, ng/ml)", "setting": "[19]", "value": "12.5 ± 1.1", "unit": "ng/mL"}, {"measurement": "Cytotoxicity (IC50, ng/ml)", "setting": "[20]; listed as Brusatol", "value": "5 ± 1.4", "unit": "ng/mL"}, {"measurement": "Cytotoxicity (IC50, ng/ml)", "setting": "[20]; listed as brusatol", "value": "less than 25 ng/ml"}]}
{"smiles": "COC(=O)[C@@]12OC[C@]34[C@H]([C@@H](O)[C@@H]1O)[C@@]1(C)CC(=O)C(O)=C(C)[C@@H]1C[C@H]3OC(=O)[C@H](OC(=O)/C=C(\\C)C(C)C)[C@@H]24", "note": "[compound 2, bruceantin]", "values": [{"measurement": "objective tumor regressions", "setting": "[21]", "value": "No objective tumor regressions were observed"}, {"measurement": "IC50 at 4 days", "setting": "[22]", "value": "> 0.05", "unit": "µg/mL"}, {"measurement": "IC50 at 3 days", "setting": "[23]", "value": "> 0.05", "unit": "µg/mL"}]}
